Measurements: PubChem BioAssay (NCI)
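Cultured in 96-well plates, cells were exposed to test compound for 48 hours across five concentrations. GI50 marks 50% less growth. At the TGI there is no net growth.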

Experiments:
Assay in all cases: DTP human tumour cell line panel, 48 h
[1] = system: RXF 393 renal
[2] = system: K-562 leukemia
[3] = system: NCI-H460 lung
[4] = system: NCI/ADR-RES ovarian
[5] = system: HT29 colon
[6] = system: TK-10 renal
[7] = system: T-47D breast
[8] = system: MOLT-4 leukemia
[9] = system: HCC-2998 colon
[10] = system: SR leukemia
[11] = system: BT-549 breast
[12] = system: OVCAR-5 ovarian
[13] = system: SW-620 colon
[14] = system: KM12 colon
[15] = system: SNB-19 CNS
[16] = system: SK-OV-3 ovarian
[17] = system: CCRF-CEM leukemia
[18] = system: SK-MEL-28 melanoma
[19] = system: MCF7 breast
[20] = system: SF-295 CNS
[21] = system: MALME-3M melanoma
[22] = system: SN12C renal
[23] = system: A498 renal
[24] = system: UACC-62 melanoma
[25] = system: MDA-MB-231 breast
[26] = system: A549 NSCLC
[27] = system: NCI-H522 lung
[28] = system: M14 melanoma
[29] = system: CAKI-1 renal
[30] = system: RPMI-8226 leukemia
[31] = system: HS 578T breast
[32] = system: MDA-MB-435
[33] = system: SF-268 CNS
[34] = system: SNB-75 CNS
[35] = system: U251 CNS
[36] = system: HL-60(TB) leukemia
[37] = system: UACC-257 melanoma
[38] = system: OVCAR-4 ovarian
[39] = system: HOP-62 NSCLC
[40] = system: SK-MEL-2 melanoma
[41] = system: IGROV1 ovarian
[42] = system: SK-MEL-5 melanoma
[43] = system: HCT-15 colon
[44] = system: PC-3 prostate
[45] = system: NCI-H23 lung
[46] = system: HCT-116 colon
[47] = system: SF-539 CNS
[48] = system: UO-31 renal
[49] = system: 786-0 renal
[50] = system: DU-145 prostate
[51] = system: NCI-H226 lung
[52] = system: COLO 205 colon
[53] = system: OVCAR-8 ovarian
[54] = system: ACHN renal
[55] = system: EKVX NSCLC
[56] = system: HOP-92 NSCLC

Nc1cc(F)ccc1NC(=O)c1ccc(NC(=O)C/C=C/c2cccnc2)cn1
GI50 [1]: 938 nM
TGI [1]: 3.48 µM
GI50 [2]: 302 nM
TGI [2]: > 50 µM
GI50 [3]: 1430 nM
TGI [3]: > 50 µM
GI50 [4]: 1310 nM
TGI [4]: > 50 µM
GI50 [5]: 1500 nM
TGI [5]: > 50 µM
GI50 [6]: 673 nM
TGI [6]: 8.16 µM
GI50 [7]: 750 nM
TGI [7]: > 50 µM
GI50 [8]: 908 nM
TGI [8]: > 50 µM
GI50 [9]: 1430 nM
TGI [9]: 6.98 µM
GI50 [10]: 876 nM
TGI [10]: > 50 µM
GI50 [11]: 1300 nM
TGI [11]: 8.31 µM
GI50 [12]: 781 nM
TGI [12]: > 50 µM
GI50 [13]: 208 nM
TGI [13]: 12.5 µM
GI50 [14]: 2800 nM
TGI [14]: > 50 µM
GI50 [15]: 2150 nM
TGI [15]: > 50 µM
GI50 [16]: 2580 nM
TGI [16]: > 50 µM
GI50 [17]: 200 nM
TGI [17]: > 50 µM
GI50 [18]: 1350 nM
TGI [18]: 4.23 µM
GI50 [19]: 1110 nM
TGI [19]: 10 µM
GI50 [20]: 1800 nM
TGI [20]: 7.36 µM
GI50 [21]: 465 nM
TGI [21]: 4.81 µM
GI50 [22]: 364 nM
TGI [22]: > 50 µM
GI50 [23]: 937 nM
TGI [23]: 3.37 µM
GI50 [24]: 1310 nM
TGI [24]: 5.95 µM
GI50 [25]: 8.61 µM
TGI [25]: > 50 µM
GI50 [26]: 3.02 µM
TGI [26]: > 50 µM
GI50 [27]: 629 nM
TGI [27]: 30 µM
GI50 [28]: 563 nM
TGI [28]: > 50 µM
GI50 [29]: 1880 nM
TGI [29]: 13.8 µM
GI50 [30]: 240 nM
TGI [30]: 2050 nM
GI50 [31]: 1300 nM
TGI [31]: > 50 µM
GI50 [32]: 1250 nM
TGI [32]: 7.18 µM
GI50 [33]: 2240 nM
TGI [33]: > 50 µM
GI50 [34]: 794 nM
TGI [34]: 47.3 µM
GI50 [35]: 1510 nM
TGI [35]: > 50 µM
GI50 [36]: 525 nM
TGI [36]: > 50 µM
GI50 [37]: 1650 nM
TGI [37]: > 50 µM
GI50 [38]: 2210 nM
TGI [38]: > 50 µM
GI50 [39]: 1990 nM
TGI [39]: > 50 µM
GI50 [40]: 2010 nM
TGI [40]: > 50 µM
GI50 [41]: 804 nM
TGI [41]: > 50 µM
GI50 [42]: 960 nM
TGI [42]: 1900 nM
GI50 [43]: 667 nM
TGI [43]: > 50 µM
GI50 [44]: 1110 nM
TGI [44]: > 50 µM
GI50 [45]: 1680 nM
TGI [45]: 37.9 µM
GI50 [46]: 186 nM
TGI [46]: 3.42 µM
GI50 [47]: 177 nM
TGI [47]: 4 µM
GI50 [48]: 1630 nM
TGI [48]: > 50 µM
GI50 [49]: 2200 nM
TGI [49]: > 50 µM
GI50 [50]: 1100 nM
TGI [50]: 5.16 µM
GI50 [51]: 2300 nM
TGI [51]: > 50 µM
GI50 [52]: 576 nM
TGI [52]: 10.4 µM
GI50 [53]: 147 nM
TGI [53]: > 50 µM
GI50 [54]: 2210 nM
TGI [54]: > 50 µM
GI50 [55]: 2490 nM
TGI [55]: > 50 µM
GI50 [56]: 699 nM
TGI [56]: 10.9 µM
